{"source": "patent US12403117B2", "about": "“Stable pharmaceutical composition containing non-steroidal anti-inflammatory drug derivative” (ZHEJIANG YUEJIA PHARMACEUTICALS CO., LTD, priority 2017, dated 2025)", "assay_type_in_all_cases": "physicochemical", "key": {"[1]": {"assay": "Repose angle by injection method", "from_the_text": "The “repose angle” formed by stacking the powders or particles reflects its fluidity. The term “repose angle” generally refers to the maximum angle formed by the free slope of the layer of the stacked powders or particles and the horizontal plane. The smaller the repose angle, the smaller the friction between the powders or particles, and the better the fluidity. Better fluidity is more convenient for dissolution and use of the powders or particles. Methods for measuring the repose angle are well known to those skilled in the art. The repose angle is measured by an “injection method” in the examples of the invention, that is, the particles flow out of the funnel and fall on the plane to form a cone, and the base angle is the repose angle."}, "[2]": {"assay": "Stability of aqueous solution of 2-(diethylamino)-ethyl-2-(4-isobutylphenyl) propionate hydrochloride at 25° C.±2° C. (HPLC)", "conditions": "10 g in 50 mL sterile water", "procedure": "10 g of 2-(diethylamino)-ethyl-2-(4-isobutylphenyl) propionate hydrochloride prepared in Example 5 was dissolved in 50 mL of sterile water and placed at 25° C.±2° C. Samples were taken on day 0, week 1, week 2, week 3 and week 4 to detect the contents of the main drug and specific impurities (ibuprofen), wherein the content of the main drug and specific impurities were detected by high-performance liquid chromatography (area normalization). The conditions of HPLC were as follows: • Column: Inertsil ODS-3 (250×4.6 mm, 5 μm) or equivalent • Flow rate: 1.0 ml/min • Column temperature: 33° C. • Wavelength: 264 nm • Injection volume: 10 μl • Mobile phase: (3.065 g sodium acetate+150 ml acetic acid+375 ml water): acetonitrile (35:65)."}, "[3]": {"assay": "Acidity: pH value of the aqueous solution", "conditions": "25 ± 0.5° C."}, "[4]": {"assay": "Stability of aqueous solution of 2-(diethylamino)-ethyl-2-acetoxybenzoate hydrochloride at 2-8° C. (HPLC)", "conditions": "5 g in 50 mL sterile water", "procedure": "5 g of 2-(diethylamino)-ethyl-2-acetoxybenzoate hydrochloride prepared in Example 1 was dissolved in 50 mL of sterile water and placed at 2-8° C. Samples were taken on day 0, month 0.5, month 1, month 2 and month 3 to detect the contents of the main drug and specific impurities (salicylic acid-(2-diethylaminoethyl ester) hydrochloride, acetylsalicylic acid, salicylic acid) and related substances, wherein the content of the main drug and specific impurities were detected by high-performance liquid chromatography (external standard method), and the related substances were detected by high-performance liquid chromatography (principal component self-control method without correction factors). The conditions of HPLC were as follows: • Column: Inertsil ODS-3 (250×4.6 mm, 5 μm) or equivalent • Flow rate: 1.0 ml/min • Column temperature: 33° C. • Wavelength: 276 nm, 303 nm • Injection volume: 10 μl • Mobile phase: water (15 ml of triethylamine+3.5 ml of 10% tetrabutylammonium hydroxide, adding water to 1000 ml): methanol: glacial acetic acid (63:27:10)."}, "[5]": {"assay": "Dissociation constant", "from_the_text": "(§1) The physical and chemical properties of the synthesized crystals of 2-(diethylamino)-ethyl-2-acetoxybenzoate hydrochloride are shown in Table 1."}, "[6]": {"assay": "Solubility (physical and chemical properties, Table 1)", "from_the_text": "as §1"}}, "note": "Where “and” joins values, the source holds several entries; their conditions need not be identical. Equal values may be shown once."}
{"compound": "CCN(CC)CCOC(=O)C(C)c1ccc(CC(C)C)cc1.Cl", "note": "(stereo not shown) [2-(diethylamino)-ethyl-2-(4-isobutylphenyl) propionate hydrochloride]", "values": [{"measurement": "Repose angle", "setting": "[1]", "value": 40, "unit": "°"}, {"measurement": "Ibuprofen (impurity)", "setting": "[2]; week 0", "value": "Not detected"}, {"measurement": "Main Drug", "setting": "[2]; week 0", "value": 100.00, "unit": "%"}, {"measurement": "Unknown peak", "setting": "[2]; week 0", "value": "Not detected"}, {"measurement": "Ibuprofen (impurity)", "setting": "[2]; week 1", "value": 0.39, "unit": "%"}, {"measurement": "Main Drug", "setting": "[2]; week 1", "value": 99.51, "unit": "%"}, {"measurement": "Unknown peak", "setting": "[2]; week 1", "value": 0.10, "unit": "%"}, {"measurement": "Ibuprofen (impurity)", "setting": "[2]; week 2", "value": 1.69, "unit": "%"}, {"measurement": "Main Drug", "setting": "[2]; week 2", "value": 98.12, "unit": "%"}, {"measurement": "Unknown peak", "setting": "[2]; week 2", "value": 0.19, "unit": "%"}, {"measurement": "Ibuprofen (impurity)", "setting": "[2]; week 3", "value": 4.04, "unit": "%"}, {"measurement": "Main Drug", "setting": "[2]; week 3", "value": 95.83, "unit": "%"}, {"measurement": "Unknown peak", "setting": "[2]; week 3", "value": 0.13, "unit": "%"}, {"measurement": "Unknown peak", "setting": "[2]; week 4", "value": 0.21, "unit": "%"}]}
{"compound": "CCN(CC)CCOC(=O)c1ccccc1OC(C)=O.Cl", "note": "[2-(diethylamino)-ethyl-2-acetoxybenzoate hydrochloride]", "values": [{"measurement": "Acidity: pH value of the 2% aqueous solution", "setting": "[3]", "value": "product at 25 ± 0.5 °C is 4.0-6.0"}, {"measurement": "Main Drug", "setting": "[4]; month 0", "value": 99.48, "unit": "%"}, {"measurement": "Salicylic acid (impurity)", "setting": "[4]; month 0", "value": 0.0028, "unit": "%"}, {"measurement": "Salicylic acid-(2-diethylaminoethyl ester) hydrochloride (impurity)", "setting": "[4]; month 0", "value": 0.51, "unit": "%"}, {"measurement": "Main Drug", "setting": "[4]; month 0.5", "value": 99.32, "unit": "%"}, {"measurement": "Salicylic acid (impurity)", "setting": "[4]; month 0.5", "value": 0.0035, "unit": "%"}, {"measurement": "Salicylic acid-(2-diethylaminoethyl ester) hydrochloride (impurity)", "setting": "[4]; month 0.5", "value": 0.67, "unit": "%"}, {"measurement": "Acetylsalicylic acid (impurity)", "setting": "[4]; month 1", "value": 0.018, "unit": "%"}, {"measurement": "Main Drug", "setting": "[4]; month 1", "value": 97.59, "unit": "%"}, {"measurement": "Salicylic acid (impurity)", "setting": "[4]; month 1", "value": 0.0044, "unit": "%"}, {"measurement": "Salicylic acid-(2-diethylaminoethyl ester) hydrochloride (impurity)", "setting": "[4]; month 1", "value": 2.38, "unit": "%"}, {"measurement": "Acetylsalicylic acid (impurity)", "setting": "[4]; month 2", "value": 0.033, "unit": "%"}, {"measurement": "Main Drug", "setting": "[4]; month 2", "value": 94.86, "unit": "%"}, {"measurement": "Salicylic acid (impurity)", "setting": "[4]; month 2", "value": 0.012, "unit": "%"}, {"measurement": "Salicylic acid-(2-diethylaminoethyl ester) hydrochloride (impurity)", "setting": "[4]; month 2", "value": 5.09, "unit": "%"}, {"measurement": "Acetylsalicylic acid (impurity)", "setting": "[4]; month 3", "value": 0.042, "unit": "%"}, {"measurement": "Salicylic acid (impurity)", "setting": "[4]; month 3", "value": 0.049, "unit": "%"}, {"measurement": "Main Drug", "setting": "[4]; month 3, hydrochloride", "value": "86% and 86.55%"}, {"measurement": "Dissociation constant", "setting": "[5]", "value": 8.82}, {"measurement": "Solubility", "setting": "[6]; in acetone", "value": "slightly soluble"}, {"measurement": "Solubility", "setting": "[6]; in ethyl acetate and ether", "value": "insoluble"}, {"measurement": "Solubility", "setting": "[6]; in water", "value": "extremely soluble"}, {"measurement": "Repose angle", "setting": "[1]", "value": 42, "unit": "°"}]}
